From paper doi:10.1101/2023.02.03.527073v1 (biorxiv, 2023)

Columns and labels:
[1] = target: T1, CgBdf1 BD2 (CgBD2) (Nakaseomyces glabratus, UniProt Q6FWV7); assay: HTRF competition with biotinylated H4ac4 peptide; type: binding
T1 sequence (Q6FWV7 269-391): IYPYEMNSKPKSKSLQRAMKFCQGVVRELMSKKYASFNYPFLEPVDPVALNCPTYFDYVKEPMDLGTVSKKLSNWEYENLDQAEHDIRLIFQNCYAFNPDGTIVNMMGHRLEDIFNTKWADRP

[2] = target: T2, human Brd4 BD2 (hBrd4 BD2) (Homo sapiens, UniProt O60885); assay: HTRF competition with biotinylated H4ac4 peptide; type: binding
[3] = target: T3, CgBdf1 BD1 (CgBD1) (Nakaseomyces glabratus, UniProt Q6FWV7); assay: HTRF competition with biotinylated H4ac4 peptide; type: binding
T3 sequence (Q6FWV7 100-228): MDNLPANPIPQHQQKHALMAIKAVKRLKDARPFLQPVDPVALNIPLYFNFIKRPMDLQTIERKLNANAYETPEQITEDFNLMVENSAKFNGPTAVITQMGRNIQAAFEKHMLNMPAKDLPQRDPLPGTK

[4] = target: T4, human Brd4 BD1 (hBrd4 BD1) (Homo sapiens, UniProt O60885); assay: HTRF competition with biotinylated H4ac4 peptide; type: binding
[5] = target: T4, human Brd4 BD1 (hBrd4 BD1); assay: biochemical
[6] = target: T3, CgBdf1 BD1 (CgBD1); assay: biochemical
[7] = target: T2, human Brd4 BD2 (hBrd4 BD2); assay: biochemical
[8] = target: T1, CgBdf1 BD2 (CgBD2); assay: biochemical

IC50 [1] [µM]	IC50 [2] [µM]	IC50 [3] [µM]	IC50 [4] [µM]	IC50 [5] [µM]	IC50 [6] [µM]	IC50 [7] [µM]	IC50 [8] [µM]	SMILES
> 20	> 20	2.23 ± 0.26	> 20					Cc1ccc(-c2nnc(C)c(NCc3cccs3)n2)cc1 [compound 24, 24]
2.06 ± 0.23		1.81 ± 1.14		2.9	1.1	0.44	2.3	CC(=O)N1CCc2[nH]c3ccc(C(=O)Nc4ccc(N5CCOCC5)cc4)cc3c2C1 [compound 29, 29]
		0.61 ± 0.1	25.9 ± 7.9	> 20				Cn1nccc1C(=O)NCc1ccc(-c2nc(-c3cccs3)no2)s1 [compound 63, 63]
